From patent publication US6512004B2, “Promoters of neural regeneration” (The Regents of the University of California, priority 1998, dated 2003)
“Also recorded” adds a separate entry of the source.

B1: purified myelin-associated glycoprotein (MAG): Native MAG purified from myelin after extraction in 1% octylglucoside and DEAE-Sepharose separation (protein, UniProt P07722 20-626, looked up)
Myelin-associated glycoprotein: GHWGAWMPSSISAFEGTCVSIPCRFDFPDELRPAVVHGVWYFNSPYPKNYPPVVFKSRTQVVHESFQGRSRLLGDLGLRNCTLLLSTLSPELGGKYYFRGDLGGYNQYTFSEHSVLDIINTPNIVVPPEVVAGTEVEVSCMVPDNCPELRPELSWLGHEGLGEPTVLGRLREDEGTWVQVSLLHFVPTREANGHRLGCQAAFPNTTLQFEGYASLDVKYPPVIVEMNSSVEAIEGSHVSLLCGADSNPPPLLTWMRDGMVLREAVAESLYLDLEEVTPAEDGIYACLAENAYGQDNRTVELSVMYAPWKPTVNGTVVAVEGETVSILCSTQSNPDPILTIFKEKQILATVIYESQLQLELPAVTPEDDGEYWCVAENQYGQRATAFNLSVEFAPIILLESHCAAARDTVQCLCVVKSNPEPSVAFELPSRNVTVNETEREFVYSERSGLLLTSILTLRGQAQAPPRVICTSRNLYGTQSLELPFQGAHRLMWAKIGPVGAVVAFAILIAIVCYITQTRRKKNVTESPSFSAGDNPHVLYSPEFRISGAPDKYESEKRLGSERRLLGLRGEPPELDLSYSHSDLGKRPTKDSYTLTEELAEYAEIRVK

Key:
Format in all cases: cell-based
[1] = test system: growth cones of the cultured Xenopus spinal neuron; assay: Growth cone turning in a Sema III gradient; settings: for growth cone turning response in Sema III gradient with agent in culture medium: Sema III 50 μg/ml in the pipette, 8-br-cGMP 100 μM, Sp-cGMPS 10 μM, PP-9 10 μM, SNAP 300 μM, Rp-cGMPS 10 μM, cAMPS analogues 20 μM, one-hour exposure
Procedure: Collapsin-1/Semaphorin III/D (Sema III), a diffusible member of the semaphorin family can repel or cause collapse of growth cones in culture (6). […] We analyzed the effect of a microscopic gradient of Sema III on growth cones of the cultured Xenopus spinal neuron (8). Sema III-containing saline was applied in pulses from a micropipette positioned 100 μm from the center of the growth cone and at a 45° angle with respect to the original direction of neurite extension. […] The repulsive response was dose-dependent with a minimal response occurring at an effective concentration of about 10 ng/ml at the growth cone (8). Heat-inactivated Sema III was ineffective (FIG. 1A). […] The rate of neurite extension was unaffected by the presence of the Sema III gradient.
(§1) 8. Dissociated Xenopus spinal neurons were prepared as described (4,5). Isolated spinal neurons were used for experiments at room temperature (22°-24° C.) 14-22 hour after plating. Sema III was purified from conditioned medium of stable 293-EBNA cell lines secreting Sema III-AP as described (17). To inactivate Sema III activity, the supernatant containing Sema III-AP was heated at 85° C. for 45 minutes [J. Fan and J. A. Raper, Neuron 14, 263 (1995)]. Microscopic gradients of diffusible factors were produced as described (4,5). The average concentration of factors at the growth cone was about 10^3-fold lower than that in the pipette [A. M. Lohof, M. Quilian, Y. Dan and M-m. Poo, J. Neurosci. 12, 1253 (1992)], and a concentration gradient of 5-10% was created across a growth cone 10 μm wide, 100 μm away from the tip of the ejecting pipette. The original direction of neurite growth was defined by the last 10-μm segment of the neurite. The turning angle was defined by the angle between the original direction of neurite extension and a straight line connecting the positions of the growth cone at the onset and the end of the one hour period. Only growth cones with a net extension >5 μm over the one-hour period were scored.
(§2) 10. M. A. Schwarzschild and R. E. Zigmond, J. Neurochem. 56, 400 (1991). Pharmacological agents were added to the culture medium at least 30 minutes before the gradient was applied and were present during the experiments. The final concentrations of pharmacological agents in the medium were listed.

[2] = test system: rat dorsal root ganglion (DRG) axons; assay: Growth cone collapse assay with Sema III on DRG explants
Procedure: 21. DRG explants derived from E14 rat embryos were cultured with 25 ng/ml NGF on plates precoated with poly-D-lysine and laminin for 20 hours before experiments as described (17). Pharmacological agents were added an hour before the collapse assay. The collapse assay was performed on sensory axons from these explants using Sema III-AP-containing medium essentially as described (17). For visualization, growth cones were stained with rhodamine-phalloidin, then washed and mounted.

[3] = test system: growth cones of Xenopus spinal neurons; assay: Growth cone turning in a rMAG gradient; settings: rMAG 150 μg/ml in the pipette; 8-br-cGMP 100 μM, Sp-cAMPS 20 μM
Source text: To examine whether the responses to other repulsive factors can be converted, we studied myelin-associated glycoprotein (MAG), a component of myelin and an inhibitor of axonal regeneration (22). […] However, the repulsion by rMAG was not affected by the addition of 8-br-cGMP. […] Thus the turning response induced by rMAG can be modulated by cAMP-dependent activities. This is reminiscent of the turning responses induced by gradients of BDNF and netrin-1 (4,5), although the latter factors are normally attractive and are converted to repulsive by inhibition of cAMP-dependent activities.
as §1
10. M. A. Schwarzschild and R. E. Zigmond, J. Neurochem. 56, 400 (1991). Pharmacological agents were added to the culture medium at least 30 minutes before the gradient was applied and were present during the experiments. […]

[4] = test system: growth cones of Xenopus spinal neurons; assay: Growth cone turning in a netrin-1 gradient; settings: for turning response in netrin-1 gradient with agent in medium: netrin-1 5 μg/ml in the pipette, Rp-cGMPS 10 μM, 8-br-cGMP 100 μM, Rp-cAMPS 20 μM
Procedure: (§3) FIGS. 4A-4D. (A) Effects of manipulating cyclic nucleotide levels on turning induced by a rMAG gradient (150 μg/ml in the pipette) in normal medium, in medium containing 8-br-cGMP (100 μM) or Sp-cAMPS (20 μM), and by heat-inactivated rMAG in normal medium. […] (B) Effects of reducing [Ca^2+]o on turning responses induced by rMAG. […] (C) Turning responses induced by a gradient of netrin-1 (5 μg/ml in the pipette) (5), in normal medium and in medium containing Rp-cGMPS (10 μM), 8-br-cGMP (100 μM), Rp-cAMPS (20 μM), or both Rp-cAMPS (20 μM) and 8-br-cGMP (100 μM). […] (D) Turning induced by a NT-3 gradient (50 μg/ml in the pipette) in normal medium and in medium containing Rp-cAMPS (20 μM) or Rp-cGMPS (10 μM), or in medium containing 1 μM Ca^2+.
as §1, §2

[5] = test system: growth cones of Xenopus spinal neurons; assay: Growth cone turning in a NT-3 gradient; settings: NT-3 50 μg/ml in the pipette; Rp-cGMPS 10 μM, Rp-cAMPS 20 μM
Procedure: as §3
8. Dissociated Xenopus spinal neurons were prepared as described (4,5). Isolated spinal neurons were used for experiments at room temperature (22°-24° C.) 14-22 hour after plating. Sema III was purified from conditioned medium of stable 293-EBNA cell lines secreting Sema III-AP as described (17). To inactivate Sema III activity, the supernatant containing Sema III-AP was heated at 85° C. for 45 minutes [J. Fan and J. A. Raper, Neuron 14, 263 (1995)]. Microscopic gradients of diffusible factors were produced as described (4,5). […] Only growth cones with a net extension >5 μm over the one-hour period were scored. […]

[6] = test system: growth cones of Xenopus spinal neurons; assay: Growth cone turning in gradients of purified MAG or purified myelin; settings: purified MAG 150 μg/ml, purified myelin 25 μg/ml in the pipette; with or without Sp-cAMPS, 8-br-cGMP, low Ca2+
Procedure: FIG. 5. Growth cone turning induced by purified myelin. A gradient of purified myelin (25 μg/ml in the pipette) was applied in normal culture medium (open circles), in medium containing Sp-cAMPS (20 μM, solid circles), or 8-br-cGMP (100 μM, solid squares). Isolated symbols along the abscissa are median values for corresponding data shown above.
FIGS. 6A, 6B. Effects of purified myelin-associated glycoprotein (MAG) on growth cones of Xenopus spinal neurons. A gradient of purified MAG (150 μg/ml in the pipette) was applied in normal culture medium (open circles), in medium containing Sp-cAMPS (20 μM, solid circles), or in medium containing 8-br-cGMP (100 μM, solid squares). (A) Shown are distributions of turning angles under different conditions. Isolated symbols along the abscissa are median values for corresponding data shown above. (B) Shown are distributions of net neurite extension in the gradient under different conditions.
FIGS. 7A, 7B. Effects of reducing external Ca^2+. (A) Purified MAG-induced turning depends on [Ca^2+]o. Shown are distributions of turning angles in normal medium in the absence (solid circles) or presence of Sp-cAMPS (20 μM, solid squares), and in medium containing 1 μM [Ca^2+]o in the absence (open circles) or presence of Sp-cAMPS (20 μM, open squares), respectively. […]
8. […] Only growth cones with a net extension >5 μm over the one-hour period were scored.

Molecule	growth cone turning response in Sema III gradient with agent in culture medium [1]	inhibition of the collapsing activity of Sema III ([2]; agent added an hour before the collapse assay)	concentrations needed to inhibit the collapsing activity of Sema III ([2]; rat DRG explants) [mM]	effect of agent alone on growth cones ([2]; without Sema III)	growth cone turning response in rMAG gradient with agent in medium [3]	repulsive turning in netrin-1 gradient in the presence of Rp-cAMPS ([4]; Rp-cAMPS 20 μM and 8-br-cGMP 100 μM)	turning response in netrin-1 gradient with agent in medium [4]	conversion of the Sema III turning response in the presence of 8-br-cGMP ([1]; 8-br-cGMP 100 μM plus Rp-cAMPS or Sp-cAMPS 20 μM)	attractive response in a NT-3 gradient with agent in medium [5]	growth cone turning induced by the purified factor and its modulation [6]
Nc1nc2c(nc(Br)n2[C@@H]2O[C@@H]3COP(=O)(O)O[C@H]3[C@H]2O)c(=O)[nH]1 [Activator 8-br-cGMP, 8-br-cGMP]	nearly all growth cones turned toward rather than away from the pipette; also recorded: attractive response	inhibited the collapsing activity of Sema III in a dose-dependent manner	0.5 to 5	no detectable effect	not affected	not affected	did not affect the attractive turning			
Nc1ncnc2c1ncn2[C@@H]1O[C@@H]2CO[P@@](O)(=S)O[C@H]2[C@H]1O [Rp-cAMPS]							repulsive turning	blocked the conversion of the turning response	no effect	
Nc1nc2c(ncn2[C@@H]2O[C@@H]3COP(O)(=S)O[C@H]3[C@H]2O)c(=O)[nH]1 (some centres unmarked) [Rp-cGMPS]	did not affect the growth cone response						did not affect the attractive turning		converted to repulsive response	
B1										results similar to those with rMAG
